# Assay: Pharmacokinetics of naloxone in Beagle dog, IM injection
# Format: in vivo
# Details: both sexes, plasma, 0.3 mg/kg, Beagle dogs
# Experimental: Pharmacokinetic (“PK”) data was collected from male and female Beagle dogs. Two (2) animals of each sex were assigned to three cohorts. […] Each injection was administered at a dose of 0.3 mg/kg.
# Blood samples were collected from each animal following IV injections at target time points of pre-dose, and at 0.033, 0.083, 0.167, 0.333, 0.5, 1, 2, 4, and 8 hr. Blood samples were also collected from each animal following IM injections at target time points of pre dose, and at 0.083, 0.167, 0.25, 0.333, 0.5, 1, 2, 4, and 8 hr. Blood samples were collected into tubes containing dipotassium ethylenediaminetetraacetic acid (K2EDTA), processed to plasma, and stored until analyzed for naloxone.
# PK analysis was performed using the target dose (mg/kg), sample collection time points (hr), and the measured concentrations of naloxone (ng/mL) in serum. If the actual sample collection time points were within 5% of target from 0 to 4 hours or within 15 minutes after 4 hours, then the target time points were used. […] The lower limit of quantitation (LLOQ) in plasma for this method is 0.2 ng/mL.
# The method utilized protein precipitation in a 96-well format and LC-MS/MS analysis. The literature method was modified to utilize a larger sample size (50 μL) analysis.
# The concentration-time profiles were evaluated using the non-compartmental analysis (NCA) module in the WinNonlin® software program (Version 8.2). […]
smiles,measurement,setting,value
C=CCN1CC[C@]23c4c5ccc(O)c4O[C@H]2C(=O)CC[C@@]3(O)[C@H]1C5 [naloxone],Tmax,"following IM injection, typical value",~15 min
same,half-life,"following both IM and IV injection, read-out: group mean elimination half-life",28 to 35 min

# From US20230149388A1, “OPIOID ANTAGONIST FORMULATIONS” (EMERGENT PRODUCT DEVELOPMENT GAITHERSBURG INC., priority 2020, published 2023)
